Target: wild type c-kit (Homo sapiens (Human), UniProt P10721)
Test: MSD Phospho c-Kit (Tyr721) Assay Whole Cell Lysate Kit in SCF-stimulated M-07e cells (pKIT assay, marked *)
Type: cell-based
Conditions: Meso Scale Discovery (MSD) assay (values marked *)
Procedure: The ability of compounds of the disclosure (described herein as test compounds) to inhibit autophosphorylation of wild type c-kit was measures using either a PathScan phospho c-kit (Tyr719) sandwich ELISA (CST #7298) or a Phospho c-Kit (Tyr721) Assay Whole Cell Lysate Kit (MSD: 515DPD/catalog number K15119D-2).
For the MSD Phospho c-Kit (Tyr721) Assay Whole Cell Lysate Kit: M-07e cells were maintained in Iscove's Modified Dulbecco's Medium (IMDM) media supplemented with 10% FBS, 5 ng/ml granulocyte-macrophage colony-stimulating factor (GM-CSF) and 100 units/mL Penicillin-Streptomycin, and grown in a 37° C., 5% CO2 in a humidified tissue culture incubator. M-07e cells were washed with phenol red-free, serum-free, GM-CSF-free IMDM and seeded in the same media at 100,000 cells well in a volume of 50 ul in a 96-well U-bottom plate. The cells were incubated for 4 hours, followed by the addition of test compound at a final DMSO concentration of 0.25% for 60 min at 37° C. to generate an 8-point dose concentration series of test compounds. The cells were stimulated with 50 ng/ml human SCF for 10 min at room temperature. Cells were then lysed by the addition of 16.5 ul of PerkinElmer 5× AlphaLISA Lysis Buffer supplemented with Cell Signaling Technologies protease/phosphatase inhibitor. Lysis was encouraged by shaking at 4° C. for 30 minutes.
25 ul of lysate was transferred to the MSD plate and the plate was shaken at 700 rpm at room temperature for one hour, followed by washing 3 times with Tris wash buffer. Next, 25 ul of detection antibody solution (diluted from 50× stock in antibody dilution buffer) was added. After shaking at 700 rpm at room temperature for one hour, the plate was washed 3 times with Tris wash buffer. The plate was then read on MSD Sector Imager immediately after 150 ul of reading buffer added to each well.
An IC50 was calculated using a 4-parameter logistic nonlinear regression.

Chain of wild type c-kit (P10721 26-976): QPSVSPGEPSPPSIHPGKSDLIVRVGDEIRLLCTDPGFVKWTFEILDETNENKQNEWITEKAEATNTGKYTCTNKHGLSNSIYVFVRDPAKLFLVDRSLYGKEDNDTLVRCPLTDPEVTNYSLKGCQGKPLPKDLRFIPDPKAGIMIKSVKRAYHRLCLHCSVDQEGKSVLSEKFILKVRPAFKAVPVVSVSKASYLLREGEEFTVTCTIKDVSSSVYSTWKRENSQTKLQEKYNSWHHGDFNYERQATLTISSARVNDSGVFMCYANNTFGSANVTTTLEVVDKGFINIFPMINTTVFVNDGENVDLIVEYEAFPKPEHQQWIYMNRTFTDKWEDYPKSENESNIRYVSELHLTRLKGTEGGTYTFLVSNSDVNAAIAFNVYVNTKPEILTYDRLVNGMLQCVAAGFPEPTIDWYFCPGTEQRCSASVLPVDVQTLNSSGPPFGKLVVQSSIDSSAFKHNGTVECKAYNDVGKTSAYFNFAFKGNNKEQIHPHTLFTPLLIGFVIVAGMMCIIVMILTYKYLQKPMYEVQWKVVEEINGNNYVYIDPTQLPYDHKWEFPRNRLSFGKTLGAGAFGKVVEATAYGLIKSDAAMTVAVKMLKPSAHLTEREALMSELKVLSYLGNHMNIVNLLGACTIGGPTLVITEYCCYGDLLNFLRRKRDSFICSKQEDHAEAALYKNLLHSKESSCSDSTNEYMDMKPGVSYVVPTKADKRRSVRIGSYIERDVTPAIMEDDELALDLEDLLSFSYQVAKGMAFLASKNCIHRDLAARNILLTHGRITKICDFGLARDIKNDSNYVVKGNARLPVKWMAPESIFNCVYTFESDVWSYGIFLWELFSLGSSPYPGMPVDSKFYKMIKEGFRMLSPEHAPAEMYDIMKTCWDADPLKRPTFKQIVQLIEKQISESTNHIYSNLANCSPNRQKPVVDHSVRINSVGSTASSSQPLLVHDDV

Structure (SMILES): Cc1ccc(-c2nnn(CC3CCOCC3)n2)cc1NC(=O)c1cnn2ccccc12 [Example 3, N-(2-methyl-5-(2-((tetrahydro-2H-pyran-4-yl)methyl)-2H-tetrazol-5-yl)phenyl)pyrazolo[1,5-a]pyridine-3-carboxamide]
- IC50: 8.4 nM

Structure (SMILES): Cc1ccc(-c2nnn(CC3CC3(F)F)n2)cc1NC(=O)c1cnn2ccccc12 (stereo not drawn) [Example 6, N-(5-(2-((2,2-difluorocyclopropyl)methyl)-2H-tetrazol-5-yl)-2-methylphenyl)pyrazolo[1,5-a]pyridine-3-carboxamide]
- IC50: 4.5 nM

Structure (SMILES): Cc1ccc(-c2nnn(C[C@H]3CC3(F)F)n2)cc1NC(=O)c1cnn2ccccc12 (single isomer, unassigned) [Example 26, (R)—N-(5-(2-((2,2-difluorocyclopropyl)methyl)-2H-tetrazol-5-yl)-2-methylphenyl)pyrazolo[1,5-a]pyridine-3-carboxamide or (S)—N-(5-(2-((2,2-difluorocyclopropyl)methyl)-2H-tetrazol-5-yl)-2-methylphenyl)pyrazolo[1,5-a]pyridine-3-carboxamide]
- IC50: 2.4 nM

Structure (SMILES): Cc1ccc(-c2nnn(CC[C@@](C)(O)C(F)(F)F)n2)cc1NC(=O)c1cnn2ccccc12 (single isomer, unassigned) [Example 41, (R)-N-(2-methyl-5-(2-(4,4,4-trifluoro-3-hydroxy-3-methylbutyl)-2H-tetrazol-5-yl)phenyl)pyrazolo[1,5-a]pyridine-3-carboxamide or (S)-N-(2-methyl-5-(2-(4,4,4-trifluoro-3-hydroxy-3-methylbutyl)-2H-tetrazol-5-yl)phenyl)pyrazolo[1,5-a]pyridine-3-carboxamide]
- IC50: 1.8 nM

Structure (SMILES): Cc1ccc(-c2nnn(C3CC(F)(F)C3)n2)cc1NC(=O)c1cnn2ccccc12 [Example 5, N-(5-(2-(3,3-difluorocyclobutyl)-2H-tetrazol-5-yl)-2-methylphenyl)pyrazolo[1,5-a]pyridine-3-carboxamide]
- IC50: 5 nM

Structure (SMILES): Cc1ccc(-c2nnn([C@H](C)C3CC3)n2)cc1NC(=O)c1cnn2ccccc12 (single isomer, unassigned) [Example 37, (R)-N-(5-(2-(1-cyclopropylethyl)-2H-tetrazol-5-yl)-2-methylphenyl)pyrazolo[1,5-a]pyridine-3-carboxamide or (S)-N-(5-(2-(1-cyclopropylethyl)-2H-tetrazol-5-yl)-2-methylphenyl)pyrazolo[1,5-a]pyridine-3-carboxamide]
- IC50: 6.2 nM

Structure (SMILES): CS(=O)(=O)N1CC(c2nnn(-c3ccc(Cl)c(NC(=O)c4cnn5ccccc45)c3)n2)C1 [Example 187]
- IC50: 6.2 nM

Structure (SMILES): Cc1ccc(-c2nnn(C3CCC3)n2)cc1NC(=O)c1cnn2ccccc12 [Example 8, N-(5-(2-cyclobutyl-2H-tetrazol-5-yl)-2-methylphenyl)pyrazolo[1,5-a]pyridine-3-carboxamide]
- IC50: 2.7 nM

Structure (SMILES): Cc1ccc(-c2nnn(C3CC(F)(F)C3)n2)cc1NC(=O)c1cnn2ccc(-c3cnn(CCO)c3)cc12 [Example 46, N-(5-(2-(3,3-difluorocyclobutyl)-2H-tetrazol-5-yl)-2-methylphenyl)-5-(1-(2-hydroxyethyl)-1H-pyrazol-4-yl)pyrazolo[1,5-a]pyridine-3-carboxamide]
- IC50: 0.6 nM

Structure (SMILES): Cc1ccc(-c2nnn(C(C)C3CCOCC3)n2)cc1NC(=O)c1cnn2ccccc12 (single isomer, unassigned) [Example 39, (R)-N-(2-methyl-5-(2-(1-(tetrahydro-2H-pyran-4-yl)ethyl)-2H-tetrazol-5-yl)phenyl)pyrazolo[1,5-a]pyridine-3-carboxamide or (S)-N-(2-methyl-5-(2-(1-(tetrahydro-2H-pyran-4-yl)ethyl)-2H-tetrazol-5-yl)phenyl)pyrazolo[1,5-a]pyridine-3-carboxamide]
- IC50: 9.1 nM

Structure (SMILES): Cc1ccc(-c2nnn(C3CC3)n2)cc1NC(=O)c1cnn2ccccc12 [Example 28, N-(5-(2-cyclopropyl-2H-tetrazol-5-yl)-2-methylphenyl)pyrazolo[1,5-a]pyridine-3-carboxamide]
- IC50: 9.1 nM

Structure (SMILES): Cc1ccc(-c2nnn(CC3CCCCO3)n2)cc1NC(=O)c1cnn2ccccc12 (stereo not drawn) [Example 34, N-(2-methyl-5-(2-((tetrahydro-2H-pyran-2-yl)methyl)-2H-tetrazol-5-yl)phenyl)pyrazolo[1,5-a]pyridine-3-carboxamide]
- IC50: 9.5 nM

Structure (SMILES): Cc1ccc(-c2nnn(CCOCC(F)(F)F)n2)cc1NC(=O)c1cnn2ccccc12 [Example 158, N-(2-methyl-5-(2-(2-(2,2,2-trifluoroethoxy)ethyl)-2H-tetrazol-5-yl)phenyl)pyrazolo[1,5-a]pyridine-3-carboxamide]
- IC50: 5.7 nM

Structure (SMILES): Cc1ccc(-c2nnn(C3CN(S(=O)(=O)C(F)(F)F)C3)n2)cc1NC(=O)c1cnn2ccccc12 [Example 182]
- IC50: 4 nM

Structure (SMILES): Cc1ccc(-c2nnn([C@H]3C[C@@H](C(F)(F)F)C3)n2)cc1NC(=O)c1cnn2ccccc12 [Example 23, N-(2-methyl-5-(2-((1s,3s)-3-(trifluoromethyl)cyclobutyl)-2H-tetrazol-5-yl)phenyl)pyrazolo[1,5-a]pyridine-3-carboxamide or N-(2-methyl-5-(2-((1r,3r)-3-(trifluoromethyl)cyclobutyl)-2H-tetrazol-5-yl)phenyl)pyrazolo[1,5-a]pyridine-3-carboxamide]
- IC50: 2.6 nM

Structure (SMILES): Cc1ccc(-c2nnn(C[C@H]3CCCCO3)n2)cc1NC(=O)c1cnn2ccccc12 (single isomer, unassigned) [Example 40, (S)-N-(2-methyl-5-(2-((tetrahydro-2H-pyran-2-yl)methyl)-2H-tetrazol-5-yl)phenyl)pyrazolo[1,5-a]pyridine-3-carboxamide or (R)-N-(2-methyl-5-(2-((tetrahydro-2H-pyran-2-yl)methyl)-2H-tetrazol-5-yl)phenyl)pyrazolo[1,5-a]pyridine-3-carboxamide]
- IC50: 3.1 nM

Structure (SMILES): Cc1ccc(-c2nnn(Cc3ccccc3F)n2)cc1NC(=O)c1cnn2ccccc12 [Example 13, N-(5-(2-(2-fluorobenzyl)-2H-tetrazol-5-yl)-2-methylphenyl)pyrazolo[1,5-a]pyridine-3-carboxamide]
- IC50: 1.6 nM

Structure (SMILES): Cc1ccc(-c2nnn(C3CC4(CCC4)C3)n2)cc1NC(=O)c1cnn2ccccc12 [Example 4, N-(2-methyl-5-(2-(spiro[3.3]heptan-2-yl)-2H-tetrazol-5-yl)phenyl)pyrazolo[1,5-a]pyridine-3-carboxamide]
- IC50: 2.6 nM

Structure (SMILES): Cc1ccc(-c2nnn(C[C@@H]3CC3(F)F)n2)cc1NC(=O)c1cnn2ccccc12 (single isomer, unassigned) [Example 25, (S)—N-(5-(2-((2,2-difluorocyclopropyl)methyl)-2H-tetrazol-5-yl)-2-methylphenyl)pyrazolo[1,5-a]pyridine-3-carboxamide or (R)—N-(5-(2-((2,2-difluorocyclopropyl)methyl)-2H-tetrazol-5-yl)-2-methylphenyl)pyrazolo[1,5-a]pyridine-3-carboxamide]
- IC50: 7.6 nM

Structure (SMILES): COCCS(=O)(=O)N1CC(c2nnn(-c3ccc(C)c(NC(=O)c4cnn5ccccc45)c3)n2)C1 [Example 189, N-(5-(5-(1-((2-methoxyethyl)sulfonyl)azetidin-3-yl)-2H-tetrazol-2-yl)-2-methylphenyl)pyrazolo[1,5-a]pyridine-3-carboxamide]
- IC50: 4.9 nM

Structure (SMILES): O=C(Nc1cc(-c2nnn(CCOCC(F)(F)F)n2)ccc1Cl)c1cnn2ccccc12 [Example 22, N-(2-chloro-5-(2-(2-(2,2,2-trifluoroethoxy)ethyl)-2H-tetrazol-5-yl)phenyl)pyrazolo[1,5-a]pyridine-3-carboxamide]
- IC50: 1.9 nM

From patent US20240262826A1, “WILD TYPE KIT INHIBITORS” (Blueprint Medicines Corporation, priority 2022, published 2024)
